How the values were obtained:
A549 cells = test: Cultured cancer cell viability assay (cell titer glo, A549 CTG); format: cell-based; settings: Homo sapiens; A549 cells, 72 hr incubation, cell titer glo; read-out: A549 CTG IC50
Description: Anti-tumor effects are monitored in cultured cancer cells after several days of compound treatment. The cell titer glo assay (Promega) measures the amount of ATP present as a proxy for cellular viability. Cellular counting is done using high-content microscopy followed by image analysis. A hanging drop 3D-culture system (3D Biomatrix) is used followed by cell titer glo to measure growth in a tumor-like environment.
The cellular assay provides information about the anti-neoplastic activity of the compounds of the invention. The compounds are tested against cultured cancer cells to determine whether or not the compounds of the invention are capable of intersecting with cancer cells to minimize or eliminate such cells. The assay involves establishing colonies of such cells and then treating them with the test compound under specified conditions and analysis regime to determine results.
(§1) Plate 25 μL of A549 cells in every well of 384-well plate using multidrop.
One (1) white plate for viability at 500 cells/well.
Serial dilute compounds with a 10 point 2-fold serial dilution in DMSO to make 250× stock compound solution
Dilute compounds 1:125 in cell culture media to make a 2× solution Add 25 μl of dilution compounds to cell plates in well duplicates
Put cells back in incubator (6 hr incubation for black plates, 72 hr incubation for white plates).
Thaw an aliquot of frozen cell titer glo (Promega G7572) at room temperature.
Add 45 mL of NaCl/PBS solution to 5 ml of cell titer glo (10×).
Remove white plates from incubator, leave at room temp for 30 minutes.
Add 25 μl of diluted cell titer glo to each well.
Shake plate for >1 minute.
Incubate plate for >5 minutes to stabilize luminescence. • Luminescence is stable for up to 3 hours.
Read luminescence on plate reader
The results are reported on the following Table I for Examples A-EE and the E1-E4 compounds as 50 percent Inhibitory concentration at candidate doses of less than 1 μM, less than 3 μM and less than 10 μM for both of the K48 antibody and the p53 (CTG) antibody assays

[1] = system: K48 poly-Ubiquitin accumulation in A549 cells; test: A549 K48 poly-ubiquitin accumulation immunofluorescence assay; format: cell-based; settings: Homo sapiens; A549 cells, 6 hr incubation, K48-Ub antibody; read-out: A549 K48 IC50
Description: Image-analysis is used to generate quantitative data from these assays that can be fit to a four-parameter sigmoid curve to derive IC50 values. Substrates of the ubiquitin-proteasome system, such as p53, are monitored after tumor cell lines are incubated with compounds for several hours. Accumulation of these proteins indicates an inhibition of proteasome-mediated degradation. Accumulation of lysine-48 chain linkage of poly-ubiquitin is also monitored by immunofluorescence as an indicator of ubiquitin-proteasome system inhibition. Both LC3 and SQSTM1 are mediators of autophagy. The localization and amounts of these proteins are monitored by immunofluorescence and report on the activity and inhibition of autophagy in response to p97 inhibition.
as §1
Two (2) black plates for IF at 2500 cells/well
Serial dilute compounds with a 10 point 2-fold serial dilution in DMSO to make 250× stock compound solution Dilute compounds 1:125 in cell culture media to make a 2× solution Add 25 μl of dilution compounds to cell plates in well duplicates Put cells back in incubator (6 hr incubation for black plates, 72 hr incubation for white plates).
Incubate cells in black plates with compound at 37 degC for 6 hrs. add 15 μL of 16% Paraformaldehyde (PFA) directly into media of each well, incubate at room temp for 5 min, flick plate and wash in 50 μL of PBS block in 50 μL of Blocking Buffer for 30 minutes (can go up to several hours) Blocking buffer: 1×PBS, 1% BSA, 0.3% Triton-X100, Hoechst (1:10,000) incubate in 25 μL of primary antibody in blocking buffer at 4 degC over night […]
Secondary Antibodies: • AlexaFluor488 Goat anti-Rabbit 1:2,000 (Life Tech A11008) • AlexaFluor555 Goat anti-Mouse 1:2,000 (Life Tech A21422) incubate in 25 μl of secondary antibody (1:2,000) in blocking buffer for 1-2 hrs at room temp (alexafluor488-anti-Rabbit/alexafluor555-anti-Mouse) Image plates in high content microscope with 405 nm, 488 nm and 555 nm filters Nuclear counts and cellular intensities of each markers are measured using Hoechst as a nuclear marker with an automated image analysis protocol using Matlab software (Math Works) The results are reported on the following Table I for Examples A-EE and the E1-E4 compounds as 50 percent Inhibitory concentration at candidate doses of less than 1 μM, less than 3 μM and less than 10 μM for both of the K48 antibody and the p53 (CTG) antibody assays

p97 = p97 (Homo sapiens, UniProt P55072); test: P97 ATPase biochemical assay (ADP Glo); settings: 20 nM p97, 20 uM ATP, 37 degC 15 min
Description: The ATPase assay is performed according the following protocol: Purified enzyme (20 nM p97), substrate (20 μM ATP) and a dose titration of compounds are mixed in buffer (50 mM TRIS pH 7.5, 20 mM MgCl2, 0.02% TX-100, 1 mM DTT, 0.2% (v/v) glycerol) and incubated at 37° C. for 15 minutes. The reaction is terminated and the level of product generated is measured using the ADP Glo Assay Kit (Promega, Madison Wis.). Plotting product generated versus compound concentration and using a four-parameter fit model generates an IC50 value for each compounds.
The p97 assay is an initial screening assay used to determine inhibitory activity of the monocyclic pyrimidine compounds of the invention against the p97 complex. As discussed above, inhibition of activity of the p97 proteosome complex can enable apoptosis and cause elimination of neoplastic cells (cancer cells). The method follows that of Christianson in Nat. Cell Biol., (2011) 14:93.
Assay Buffer is a mixture of 50 mM TRIS pH 7.5, 20 mM MgCl2, 0.02% TX-100, 1 mM DTT and 0.2% (v/v) Glycerol. The well plate is Platetype: Corning 3674, 384w plate. The identification kit is an ADP glo kit (Promega): stop buffer, detection reagent.
Serial dilute compound in DMSO in a 1:3.33-fold 10 point serial dilution.
0.5 μL compound serial diluted in DMSO (Final Conc. 10%)
2 μL ATP (Final Conc.=20 uM, diluted in assay buffer)
2.5 μL p97 (Final Conc.=20 nM, diluted in assay buffer)
Incubate at 37 degC for 15 min.
Add 5 μL of stop buffer, incubate at RT for 40 min.
Add 10 μL of detection reagent, incubate at RT for 30 min.
Read luminescence on Envision plate reader. • Upon obtaining the data from the luminescence reading, the data may be analyzed as follows:
Normalize luminescence data using no enzyme (full inhibition) and no compound (no inhibition) controls. Plot normalized luminescence data against log-transformed concentration values and fit to a sigmoidal curve to determine IC50 values (done in Collaborative Drug Discovery software).
The results are reported on the following Table for Examples A-EE and the E1-E4 compounds as 50 percent Inhibitory concentration at candidate doses of less than 30 nM, less than 100 nM, less than 300 nM and less than 1000 nM for the p97 inhibition assay.

Caco-2 cell monolayers = settings: pH 7.4, range over 12 inter-day experiments

p97, sequence (P55072 whole entry): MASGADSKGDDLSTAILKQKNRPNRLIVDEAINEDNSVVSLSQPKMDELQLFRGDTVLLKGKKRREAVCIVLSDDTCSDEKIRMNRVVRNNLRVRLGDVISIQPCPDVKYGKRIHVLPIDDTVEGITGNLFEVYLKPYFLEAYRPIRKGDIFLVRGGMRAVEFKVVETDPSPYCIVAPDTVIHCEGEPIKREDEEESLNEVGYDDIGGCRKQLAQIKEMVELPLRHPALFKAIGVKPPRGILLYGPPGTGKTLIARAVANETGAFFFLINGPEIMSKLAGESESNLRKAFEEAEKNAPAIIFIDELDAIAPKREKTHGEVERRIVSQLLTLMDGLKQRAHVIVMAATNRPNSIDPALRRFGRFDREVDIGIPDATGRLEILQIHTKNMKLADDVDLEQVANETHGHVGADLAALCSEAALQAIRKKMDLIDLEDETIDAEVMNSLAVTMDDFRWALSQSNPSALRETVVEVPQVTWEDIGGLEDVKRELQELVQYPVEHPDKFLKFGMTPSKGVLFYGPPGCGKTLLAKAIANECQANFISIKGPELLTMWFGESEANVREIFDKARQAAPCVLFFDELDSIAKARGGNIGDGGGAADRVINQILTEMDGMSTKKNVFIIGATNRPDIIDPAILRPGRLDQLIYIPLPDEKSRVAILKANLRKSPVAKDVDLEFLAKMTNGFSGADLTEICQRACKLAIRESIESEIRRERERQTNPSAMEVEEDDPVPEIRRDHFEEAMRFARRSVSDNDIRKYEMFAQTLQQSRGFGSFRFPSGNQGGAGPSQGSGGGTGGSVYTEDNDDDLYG

| SMILES | IC50 (A549 cells) [nM] | IC50 [1] [nM] | IC50 (p97) [nM] | Peff (×E-6 cm/sec) in pH 7.4 Caco-2, A B, Range (Caco-2 cell monolayers; A to B) | Peff (×E-6 cm/sec) in pH 7.4 Caco-2, B A, Range (Caco-2 cell monolayers; B to A) |
| --- | --- | --- | --- | --- | --- |
| Cc1cc2c(C(N)=O)cccc2n1-c1ncc(OC(C)C)c(NCc2ccccc2)n1 [Example 26, 1-[4-(benzylamino)-5-(propan-2-yloxy)pyrimidin-2-yl]-2-methyl-1H-indole-4-carboxamide] | < 3000 | < 3000 | < 100 | – | – |
| CCOc1cnc(-n2c(C)cc3c(C(N)=O)cccc32)nc1NCc1ccccc1 [Example 27, 1-[4-(benzylamino)-5-ethoxypyrimidin-2-yl]-2-methyl-1H-indole-4-carboxamide] | < 3000 | < 3000 | < 30 | – | – |
| COCCOc1cnc(-n2c(C)cc3c(C(N)=O)cccc32)nc1NCc1ccccc1 [Example 28, 1-[4-(benzylamino)-5-(2-methoxyethoxy)pyrimidin-2-yl]-2-methyl-1H-indole-4-carboxamide] | < 10000 | < 3000 | < 100 | – | – |
| COc1cnc(-n2c(CN)cc3c(C(N)=O)cccc32)nc1NCc1ccccc1 [Example 29, 2-(aminomethyl)-1-(4-(benzylamino)-5-methoxypyrimidin-2-yl)-1H-indole-4-carboxamide] | < 3000 | < 1000 | < 100 | – | – |
| CC(C)c1cnc(-n2c(CN)cc3c(C(N)=O)cccc32)nc1NCc1ccccc1 [Example 30, 2-(aminomethyl)-1-[4-(benzylamino)-5-(propan-2-yl)pyrimidin-2-yl]-1H-indole-4-carboxamide] | < 3000 | < 3000 | < 100 | – | – |
| COc1nc(-n2c(C)cc3c(C(N)=O)cccc32)nc(NCc2ccccc2)c1C [Example 33, 1-(4-(benzylamino)-6-methoxy-5-methylpyrimidin-2-yl)-2-methyl-1H-indole-4-carboxamide] | < 10000 | < 3000 | < 30 | – | – |
| Cc1cc2c(C(N)=O)cccc2n1-c1ncc(C(C)O)c(NCc2ccccc2)n1 (centres unmarked) [Example 34, 1-[4-(benzylamino)-5-(1-hydroxyethyl)pyrimidin-2-yl]-2-methyl-1H-indole-4-carboxamide] | < 3000 | < 3000 | < 30 | – | – |
| Cc1cc2c(C(N)=O)cccc2n1-c1ncc(C(C)N)c(NCc2ccccc2)n1 (centres unmarked) [Example 35, 1-[5-(1-aminoethyl)-4-(benzylamino)pyrimidin-2-yl]-2-methyl-1H-indole-4-carboxamide] | < 10000 | < 10000 | < 100 | – | – |
| CNCc1nc(-n2c(C)cc3c(C(N)=O)cccc32)nc(NCc2ccccc2)c1C [Example 36, 1-[4-(benzylamino)-5-methyl-6-[(methylamino)methyl]pyrimidin-2-yl]-2-methyl-1H-indole-4-carboxamide] | < 10000 | < 10000 | < 100 | – | – |
| COc1cnc(-n2c(C)cc3c(CN)cccc32)nc1NCc1ccccc1 [Example 37, 2-[4-(aminomethyl)-2-methyl-1H-indol-1-yl]-N-benzyl-5-methoxypyrimidin-4-amine] | < 10000 | < 3000 | < 1000 | – | – |
| CC(C)NCC(O)COc1cccc2ccccc12 (centres unmarked) [Propranolol] | – | – | – | 18.50-36.80 ×E-6 cm/sec | 16.30-31.40 ×E-6 cm/sec |
